Key:
[1] = test system: recombinant human CFTR carrying the premature stop codon (PTC) mutation R1162X; assay: CFTR-PTC mutant translation readthrough, Nanoluc tagged CFTR luminescence (R1162X cell line); type: cell-based; settings: for CFTR R1162X ACTIVITY Fold 10 μM G-418: fold over 10 μM G-418, in combination with G418; for EC50: in combination with G418, 16HBE cells, read-out: CFTR R1162X ACTIVITY EC50
In short: (§1)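 16HBE cells stably expressing Nanoluc-tagged human CFTR with G542X or R1162X, in medium with 3 μM VX-809, treated 48 h at 37 °C with compound (10-point, 2-fold, top 50 μM final) alone or with 10 μM G418. Live-cell Nanoluc luminescence normalised to a maximally effective G418 (125-250 μM).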

[2] = test system: recombinant human CFTR carrying the premature stop codon (PTC) mutation G542X; assay: CFTR-PTC mutant translation readthrough, Nanoluc tagged CFTR luminescence (G542X cell line); type: cell-based; settings: in combination with G418, G542X cell line; for CFTR G542X ACTIVITY Fold 10 μM G-418: fold over 10 μM G-418; for EC50: 16HBE cells
In short: as §1

| SMILES | CFTR R1162X ACTIVITY Fold 10 μM G-418 [1] | EC50 [1] | CFTR G542X ACTIVITY Fold 10 μM G-418 [2] | EC50 [2] |
| --- | --- | --- | --- | --- |
| FC(F)(F)c1cccc(Cl)c1COc1cnc(-n2cc(-c3ccccn3)nn2)nc1 | A′ (A′ = ≥10X) | < 1000 nM | A′ (A′ = ≥10X) | < 1000 nM |
| Cc1cccc(C(F)(F)F)c1COc1cnc(N2CCC(O)C(F)(F)C2)nc1 (stereo not drawn) | A′ (A′ = ≥10X) | < 1000 nM | C′ (C′ = <5X) | < 1000 nM |
| Cc1cccc(C(F)(F)F)c1COc1cnc(N2CCC(O)CC2)nc1 [1-[5-[[2-methyl-6-(trifluoromethyl)phenyl]methoxy]pyrimidin-2-yl]piperidin-4-ol] | A′ (A′ = ≥10X) | < 1000 nM | A′ (A′ = ≥10X) | < 1000 nM |
| OCc1cn(-c2ccc(OCc3c(Cl)cccc3C(F)(F)F)cn2)cn1 | A′ (A′ = ≥10X) | 1000 to 10000 nM | A′ (A′ = ≥10X) | < 1000 nM |
| Cc1cccc(OC(F)F)c1COc1cnc(-n2ccc(CO)n2)nc1 | C′ (C′ = <5X) | 1000 to 10000 nM | A′ (A′ = ≥10X) | 1000 to 10000 nM |
| O=C(O)C1CN(c2ncc(OCc3c(Cl)cccc3C(F)(F)F)cn2)CCO1 (stereo not drawn) [4-(5-{[2-chloro-6-(trifluoromethyl)phenyl]methoxy}pyrimidin-] | – | > 10000 nM | – | 1000 to 10000 nM |
| CCc1cccc(C(F)(F)F)c1COc1ccc(N2C[C@@H](CO)NC2=O)nc1 | C′ (C′ = <5X) | < 1000 nM | C′ (C′ = <5X) | < 1000 nM |
| FC(F)(F)c1cccc(Cl)c1COc1cnc(N2CCCC3(CCNC3)C2)nc1 (stereo not drawn) | B′ (B′ = ≥5X to <10X) | 1000 to 10000 nM | B′ (B′ = ≥5X to <10X) | 1000 to 10000 nM |
| OC1CCN(c2ncc(OCc3c(Cl)cccc3Cl)cn2)CC1 [1-[5-[(2,6-dichlorophenyl)methoxy]pyrimidin-2-yl]piperidin-4-ol] | A′ (A′ = ≥10X) | < 1000 nM | A′ (A′ = ≥10X) | < 1000 nM |
| COC(=O)C1CN(c2ncc(OCc3c(Cl)cccc3Cl)cn2)CC(=O)N1 (stereo not drawn) | B′ (B′ = ≥5X to <10X) | > 10000 nM | A′ (A′ = ≥10X) | > 10000 nM |
| O=C1N[C@@H](CO)CN1c1ccc(OCc2c(Cl)cccc2Cl)cn1 | A′ (A′ = ≥10X) | 1000 to 10000 nM | A′ (A′ = ≥10X) | 1000 to 10000 nM |
| NC[C@@H]1CN(c2ncc(OCc3c(Cl)cccc3Cl)cn2)CCO1 | A′ (A′ = ≥10X) | 1000 to 10000 nM | B′ (B′ = ≥5X to <10X) | < 1000 nM |
| C[C@@H](O)[C@@H]1CN(c2ncc(OCc3c(Cl)cccc3Cl)cn2)CCO1 (racemic) | A′ (A′ = ≥10X) | > 10000 nM | A′ (A′ = ≥10X) | 1000 to 10000 nM |
| NCc1cn(-c2ccc(OCc3c(Cl)cccc3Cl)cn2)nn1 [[1-[5-[(2,6-dichlorophenyl)methoxy]-2-pyridyl]triazol-4-yl]methanamine] | A′ (A′ = ≥10X) | 1000 to 10000 nM | A′ (A′ = ≥10X) | 1000 to 10000 nM |
| O=C1OC(CO)CN1c1ccc(OCc2c(Br)cccc2Br)cc1 (stereo not drawn) [3-[4-[(2,6-dibromophenyl)methoxy]phenyl]-5-(hydroxymethyl)oxazolidin-2-one] | A′ (A′ = ≥10X) | 1000 to 10000 nM | A′ (A′ = ≥10X) | 1000 to 10000 nM |
| OCc1ccn(-c2ncc(OCc3c(Cl)cccc3Cl)cn2)n1 [[1-[5-[(2,6-dichlorophenyl)methoxy]pyrimidin-2-yl]pyrazol-3-yl]methanol] | A′ (A′ = ≥10X) | 1000 to 10000 nM | A′ (A′ = ≥10X) | < 1000 nM |
| OCC(O)c1ccc(OCc2c(Cl)cccc2Cl)cn1 (stereo not drawn) [1-[5-[(2,6-dichlorophenyl)methoxy]-2-pyridyl]ethane-1,2-diol] | B′ (B′ = ≥5X to <10X) | 1000 to 10000 nM | A′ (A′ = ≥10X) | > 10000 nM |
| NC1(CO)CCN(c2ncc(OCc3c(Cl)cccc3C(F)(F)F)cn2)C1 (stereo not drawn) | B′ (B′ = ≥5X to <10X) | 1000 to 10000 nM | A′ (A′ = ≥10X) | > 10000 nM |
| Cc1cccc(C(F)(F)F)c1COc1ccc(-n2cnc(C(=O)O)n2)cc1 | A′ (A′ = ≥10X) | 1000 to 10000 nM | A′ (A′ = ≥10X) | 1000 to 10000 nM |
| Cc1cccc(C(F)(F)F)c1COc1cnc(N2CCC(CO)C2)nc1 (stereo not drawn) | A′ (A′ = ≥10X) | < 1000 nM | A′ (A′ = ≥10X) | < 1000 nM |

| SMILES | CFTR R1162X ACTIVITY Fold 10 μM G-418 [1] | EC50 [1] | CFTR G542X ACTIVITY Fold 10 μM G-418 [2] | EC50 [2] |
| --- | --- | --- | --- | --- |
| O=C1CN(c2ncc(OCc3c(Cl)cccc3Cl)cn2)CCN1CCO | A′ (A′ = ≥10X) | 1000 to 10000 nM | A′ (A′ = ≥10X) | 1000 to 10000 nM |
| Cc1cccc(C(F)(F)F)c1COc1cnc(N2CC[S+]([O-])CC2)nc1 | A′ (A′ = ≥10X) | 1000 to 10000 nM | A′ (A′ = ≥10X) | 1000 to 10000 nM |
| COc1cccc(Br)c1COc1ccc(N2CC(CO)OC2=O)cc1 (stereo not drawn) | B′ (B′ = ≥5X to <10X) | > 10000 nM | A′ (A′ = ≥10X) | > 10000 nM |
| CC(=O)N1CCN(c2ncc(OCc3c(Cl)cccc3Cl)cn2)CC1 [1-[4-[5-[(2,6-dichlorophenyl)methoxy]pyrimidin-2-yl]piperazin-1-yl]ethanone] | A′ (A′ = ≥10X) | 1000 to 10000 nM | A′ (A′ = ≥10X) | 1000 to 10000 nM |
| OCC1CN(c2ncc(OCc3c(Cl)cccc3C3CC3)cn2)CCO1 (stereo not drawn) | A′ (A′ = ≥10X) | < 1000 nM | A′ (A′ = ≥10X) | < 1000 nM |
| CNCC1CN(c2ncc(OCc3c(Cl)cccc3Cl)cn2)CCO1 (stereo not drawn) | B′ (B′ = ≥5X to <10X) | 1000 to 10000 nM | B′ (B′ = ≥5X to <10X) | 1000 to 10000 nM |
| OCc1n[nH]c(-c2ccc(OCc3c(Cl)cccc3Cl)cn2)n1 [[5-[5-[(2,6-dichlorophenyl)methoxy]-2-pyridyl]-1H-1,2,4-triazol-3-yl]methanol] | B′ (B′ = ≥5X to <10X) | 1000 to 10000 nM | B′ (B′ = ≥5X to <10X) | 1000 to 10000 nM |
| Cc1cccc(C(F)(F)F)c1COc1cnc(N2CCS(=O)(=O)C(CO)C2)nc1 (stereo not drawn) [2-(hydroxymethyl)-4-(5-{[2-methyl-6-(trifluoromethyl)phenyl]] | – | 1000 to 10000 nM | C′ (C′ = <5X) | 1000 to 10000 nM |
| Cc1cccc(C(F)(F)F)c1COc1cnc(N2CCOC(CN)C2)nc1 (stereo not drawn) | A′ (A′ = ≥10X) | < 1000 nM | A′ (A′ = ≥10X) | < 1000 nM |
| OCc1ccn(-c2ncc(OCc3c(Cl)cccc3OC(F)(F)F)cn2)n1 | B′ (B′ = ≥5X to <10X) | 1000 to 10000 nM | A′ (A′ = ≥10X) | < 1000 nM |
| CC(=O)N[C@H]1CCN(c2ncc(OCc3c(Cl)cccc3Cl)cn2)C1 | A′ (A′ = ≥10X) | 1000 to 10000 nM | A′ (A′ = ≥10X) | 1000 to 10000 nM |
| CC(O)C1CN(c2ccc(OCc3c(Cl)cccc3Cl)cc2)C(=O)O1 (stereo not drawn) [3-[4-[(2,6-dichlorophenyl)methoxy]phenyl]-5-(1-hydroxyethyl)oxazolidin-2-one] | B′ (B′ = ≥5X to <10X) | > 10000 nM | A′ (A′ = ≥10X) | 1000 to 10000 nM |
| Cc1cccc(C(F)(F)F)c1COc1cnc(-n2cnc(CO)c2)nc1 | A′ (A′ = ≥10X) | < 1000 nM | A′ (A′ = ≥10X) | < 1000 nM |
| Cc1cccc(C(F)(F)F)c1COc1cnc(N2CCN(C(N)=O)[C@@H](C)C2)nc1 | A′ (A′ = ≥10X) | < 1000 nM | A′ (A′ = ≥10X) | < 1000 nM |
| Cc1cccc(C(F)(F)F)c1COc1cnc(N2CCC[C@H](O)C2)nc1 | A′ (A′ = ≥10X) | < 1000 nM | A′ (A′ = ≥10X) | < 1000 nM |
| CC1(C)CN(c2ncc(OCc3c(Cl)cccc3Cl)cn2)CC(CO)O1 (stereo not drawn) | A′ (A′ = ≥10X) | 1000 to 10000 nM | A′ (A′ = ≥10X) | 1000 to 10000 nM |
| OCCOCCN1CCN(c2ncc(OCc3c(Cl)cccc3Cl)cn2)CC1 | A′ (A′ = ≥10X) | < 1000 nM | A′ (A′ = ≥10X) | < 1000 nM |
| Cc1cccc(C(F)(F)F)c1COc1cnc(N2CCO[C@@H](CO)C2)nc1 | A′ (A′ = ≥10X) | < 1000 nM | A′ (A′ = ≥10X) | < 1000 nM |
| OCC1(F)CCN(c2ncc(OCc3c(Cl)cccc3Cl)cn2)CC1 [[1-[5-[(2,6-dichlorophenyl)methoxy]pyrimidin-2-yl]-4-fluoro-4-piperidyl]methanol] | A′ (A′ = ≥10X) | < 1000 nM | A′ (A′ = ≥10X) | < 1000 nM |

— US20250228865A1, “COMPOUNDS FOR ENHANCING READ THROUGH OF GENES CONTAINING PREMATURE TERMINATION CODONS AND METHODS FOR MAKING AND USING THE SAME” (Sanofi US Services Inc., priority 2022, published 2025)
